In patent publication US12435044B2, “Pyridazinone herbicides and pyridazinone intermediates used to prepare a herbicide” (FMC Corporation, priority 2018, dated 2025):

What was measured:
Format in all cases: in vivo
[1] = system: barnyardgrass (Echinochloa crus-galli); experiment: Test A pre-/postemergence greenhouse test
From the text: (§1) Seeds of plant species selected from barnyardgrass (Echinochloa crus-galli), kochia (Kochia scoparia), ragweed (common ragweed, Ambrosia elatior), ryegrass, Italian (Lolium multiflorum), foxtail, giant (Setaria faberii), foxtail, green (Setaria viridis) and pigweed (Amaranthus retroflexus) were planted into a blend of loam soil and sand and treated preemergence with a directed soil spray using test chemicals formulated in a non-phytotoxic solvent mixture which included a surfactant.
(§2) At the same time, plants selected from these weed species and also wheat (Triticum aestivum), corn (Zea mays), blackgrass (Alopecurus myosuroides) and galium (catchweed bedstraw, Galium aparine) were planted in pots containing the same blend of loam soil and sand and treated with postemergence applications of test chemicals formulated in the same manner. Plants ranged in height from 2 to 10 cm and were in the one- to two-leaf stage for the postemergence treatment. Treated plants and untreated controls were maintained in a greenhouse for approximately 10 d, after which time all treated plants were compared to untreated controls and visually evaluated for injury. Plant response ratings, summarized in Table A, are based on a 0 to 100 scale where 0 is no effect and 100 is complete control. A dash (-) response means no test result.

kochia (Kochia scoparia) [2] = experiment: Test A pre-/postemergence greenhouse test
From the text: as §1, §2

[3] = system: pigweed (Amaranthus retroflexus); experiment: Test A pre-/postemergence greenhouse test
From the text: as §1, §2

[4] = system: ragweed (common ragweed, Ambrosia elatior); experiment: Test A pre-/postemergence greenhouse test
From the text: as §1, §2

[5] = system: ryegrass, Italian (Lolium multiflorum); experiment: Test A pre-/postemergence greenhouse test
From the text: as §1, §2

[6] = system: barley, spring (Hordeum vulgare); experiment: Test D pre-/postemergence controlled growth environment test; details: Postemergence
From the text: (§3) Seeds of plant species selected from blackgrass (Alopecurus myosuroides), galium (catchweed bedstraw, Galium aparine), kochia (Kochia scoparia), oilseed rape (Brassica napus), barley, spring (Hordeum vulgare), wheat, spring (Triticum aestivum), oat, wild (Avena fatua), barley, winter (Hordeum vulgare) and wheat, winter (Triticum aestivum) were planted into a silt loam soil and treated preemergence with test chemicals formulated in a non-phytotoxic solvent mixture which included a surfactant.
(§4) At the same time, plants selected from these crop and weed species and also bluegrass (annual bluegrass, Poa annua), canarygrass (littleseed canarygrass, Phalaris minor), chickweed (common chickweed, Stellaria media), bromegrass, downy (downy bromegrass, Bromus tectorum), field poppy (Papaver rhoeas), field violet (Viola arvensis), foxtail, green (Setaria viridis), deadnettle (henbit deadnettle, Lamium amplexicaule), ryegrass, Italian (Lolium multiflorum), lambsquarters (Chenopodium album), pigweed (Amaranthus retroflexus), chamomile (scentless chamomile, Matricaria inodora), Russian thistle (Salsola kali), speedwell (bird's-eye speedwell, Veronica persica), buckwheat, wild (Polygonum convolvulus), mustard, wild (Sinapis arvensis), radish, wild (Raphanus raphanistrum), windgrass (Apera spica-venti), geranium, cutleaf (Geranium dissectum) and Canada thistle (Cirsium arvense) were planted in pots containing Redi-Earth® planting medium (Scotts Company, 14111 Scottslawn Road, Marysville, Ohio 43041) comprising spaghnum peat moss, vermiculite, wetting agent and starter nutrients and treated with postemergence applications of the test chemicals formulated in the same manner. Plants ranged in height from 2 to 18 cm (1- to 4-leaf stage). Treated plants and controls were maintained in a controlled growth environment for 14 to 21 d after which time all species were compared to controls and visually evaluated. Plant response ratings, summarized in Table D, are based on a scale of 0 to 100 where 0 is no effect and 100 is complete control. A dash (-) response means no test result.

[7] = system: barley, winter (Hordeum vulgare); experiment: as above; details: Postemergence
From the text: as §3, §4

[8] = system: blackgrass (Alopecurus myosuroides); experiment: as above; details: Postemergence
From the text: as §3, §4

[9] = system: galium (catchweed bedstraw, Galium aparine); experiment: as above; details: Postemergence
From the text: as §3, §4

kochia (Kochia scoparia) [10] = experiment: as above; details: Postemergence
From the text: as §3, §4

oat, wild (Avena fatua) = experiment: as above; details: Postemergence
From the text: as §3, §4

[11] = system: oilseed rape (Brassica napus); experiment: as above; details: Postemergence
From the text: as §3, §4

[12] = system: wheat, spring (Triticum aestivum); experiment: as above; details: Postemergence
From the text: as §3, §4

[13] = system: wheat, winter (Triticum aestivum); experiment: as above; details: Postemergence
From the text: as §3, §4

Cc1ccc2ccc(Cl)cc2c1-c1c(O)c(Cl)nn(C)c1=O [Cpd. No. 22]
Plant response rating (0 to 100 scale) ([1]; Postemergence, 31 g ai/ha): 100
Plant response rating (0 to 100 scale) ([1]; Postemergence, 125 g ai/ha): 100
Plant response rating (0 to 100 scale) ([1]; Preemergence, 31 g ai/ha): 100
Plant response rating (0 to 100 scale) ([1]; Preemergence, 125 g ai/ha): 100
Plant response rating (0 to 100 scale) (kochia (Kochia scoparia) [2]; Postemergence, 31 g ai/ha): 60
Plant response rating (0 to 100 scale) (kochia (Kochia scoparia) [2]; Postemergence, 125 g ai/ha): 100
Plant response rating (0 to 100 scale) (kochia (Kochia scoparia) [2]; Preemergence, 31 g ai/ha): 10
Plant response rating (0 to 100 scale) (kochia (Kochia scoparia) [2]; Preemergence, 125 g ai/ha): 90
Plant response rating (0 to 100 scale) ([3]; Postemergence, 31 g ai/ha): 100
Plant response rating (0 to 100 scale) ([3]; Postemergence, 125 g ai/ha): 100
Plant response rating (0 to 100 scale) ([3]; Preemergence, 31 g ai/ha): 100
Plant response rating (0 to 100 scale) ([3]; Preemergence, 125 g ai/ha): 100
Plant response rating (0 to 100 scale) ([4]; Postemergence, 31 g ai/ha): 100
Plant response rating (0 to 100 scale) ([4]; Postemergence, 125 g ai/ha): 100
Plant response rating (0 to 100 scale) ([4]; Preemergence, 31 g ai/ha): 100
Plant response rating (0 to 100 scale) ([4]; Preemergence, 125 g ai/ha): 100
Plant response rating (0 to 100 scale) ([5]; Postemergence, 31 g ai/ha): 100
Plant response rating (0 to 100 scale) ([5]; Postemergence, 125 g ai/ha): 100
Plant response rating (0 to 100 scale) ([5]; Preemergence, 31 g ai/ha): 90
Plant response rating (0 to 100 scale) ([5]; Preemergence, 125 g ai/ha): 100
Plant response rating, Barley, Spring ([6]; 31 g ai/ha): 67
Plant response rating, Barley, Spring ([6]; 62 g ai/ha): 85
Plant response rating, Barley, Winter ([7]; 31 g ai/ha): 47
Plant response rating, Barley, Winter ([7]; 62 g ai/ha): 73
Plant response rating, Blackgrass ([8]; 31 g ai/ha): 75
Plant response rating, Blackgrass ([8]; 62 g ai/ha): 82
Plant response rating, Galium ([9]; 31 g ai/ha): 92
Plant response rating, Galium ([9]; 62 g ai/ha): 96
Plant response rating, Kochia (kochia (Kochia scoparia) [10]; 31 g ai/ha): 37
Plant response rating, Kochia (kochia (Kochia scoparia) [10]; 62 g ai/ha): 58
Plant response rating, Oat, Wild (oat, wild (Avena fatua); 31 g ai/ha): 93
Plant response rating, Oat, Wild (oat, wild (Avena fatua); 62 g ai/ha): 98
Plant response rating, Oilseed Rape ([11]; 31 g ai/ha): 73
Plant response rating, Oilseed Rape ([11]; 62 g ai/ha): 90
Plant response rating, Wheat, Spring ([12]; 31 g ai/ha): 90
Plant response rating, Wheat, Spring ([12]; 62 g ai/ha): 96
Plant response rating, Wheat, Winter ([13]; 31 g ai/ha): 85
Plant response rating, Wheat, Winter ([13]; 62 g ai/ha): 95
